The results in this text go back to patent US20090181963A1, “3H-[1,2,3]TRIAZOLO[4,5-D]PYRIMIDINE COMPOUNDS, THEIR USE AS mTOR KINASE AND PI3 KINASE INHIBITORS, AND THEIR [sequence]” (Wyeth, priority 2008, published 2009).

SMILES strings stand for the structures.

The target in one assay is PI3 Kinase γ (Homo sapiens, UniProt P48736). The assay is described as follows: Fluorescence polarization assay for PI3K (PI3 Kinase γ). The assay is classed as biochemical. The conditions noted are these: diC8-PI(4,5)P2 substrate, 25 μM ATP, one hour at 25° C. On the technique in general: In fluorescence polarisation assays a small probe gives low polarisation when free and higher when bound to something large.
Chain of PI3 Kinase γ (P48736 whole entry): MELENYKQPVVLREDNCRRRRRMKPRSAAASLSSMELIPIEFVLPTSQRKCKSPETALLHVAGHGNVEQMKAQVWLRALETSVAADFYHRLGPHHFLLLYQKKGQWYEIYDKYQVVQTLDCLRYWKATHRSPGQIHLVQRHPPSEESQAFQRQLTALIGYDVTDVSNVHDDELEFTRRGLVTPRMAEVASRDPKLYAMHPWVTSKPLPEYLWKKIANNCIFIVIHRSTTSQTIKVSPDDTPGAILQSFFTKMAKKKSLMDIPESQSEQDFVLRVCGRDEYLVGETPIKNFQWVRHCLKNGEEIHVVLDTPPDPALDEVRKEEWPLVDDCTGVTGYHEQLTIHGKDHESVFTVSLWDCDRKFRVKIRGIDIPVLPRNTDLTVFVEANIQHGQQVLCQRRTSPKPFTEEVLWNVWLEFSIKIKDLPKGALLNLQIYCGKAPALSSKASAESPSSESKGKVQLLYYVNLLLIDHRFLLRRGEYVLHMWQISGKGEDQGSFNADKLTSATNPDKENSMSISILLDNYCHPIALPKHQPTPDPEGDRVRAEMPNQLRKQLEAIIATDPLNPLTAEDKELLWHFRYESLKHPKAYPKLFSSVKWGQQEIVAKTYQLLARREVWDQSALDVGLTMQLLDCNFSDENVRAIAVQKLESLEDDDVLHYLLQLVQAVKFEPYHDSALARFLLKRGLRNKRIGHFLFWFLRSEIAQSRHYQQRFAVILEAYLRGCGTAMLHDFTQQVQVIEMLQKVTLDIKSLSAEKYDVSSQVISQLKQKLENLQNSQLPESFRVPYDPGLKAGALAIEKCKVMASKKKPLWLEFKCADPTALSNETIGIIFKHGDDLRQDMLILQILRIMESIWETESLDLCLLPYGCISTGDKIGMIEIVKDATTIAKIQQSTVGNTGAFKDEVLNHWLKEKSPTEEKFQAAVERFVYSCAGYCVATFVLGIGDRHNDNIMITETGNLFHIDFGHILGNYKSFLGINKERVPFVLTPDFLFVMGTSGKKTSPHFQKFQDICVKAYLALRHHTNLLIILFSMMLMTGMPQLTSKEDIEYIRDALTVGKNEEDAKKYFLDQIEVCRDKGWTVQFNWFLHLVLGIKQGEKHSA

The next assay has as its target PI3 Kinase α (Homo sapiens, UniProt P42336). The assay is described as follows: Fluorescence polarization assay for PI3K (PI3 Kinase α). The assay is classed as biochemical. To be noted: diC8-PI(4,5)P2 substrate, 25 μM ATP, one hour at 25° C.

Broadly, the IC50 is the midpoint of a concentration-inhibition curve. High values mean weaker potency, low ones greater potency.

Chain of PI3 Kinase α (P42336 whole entry): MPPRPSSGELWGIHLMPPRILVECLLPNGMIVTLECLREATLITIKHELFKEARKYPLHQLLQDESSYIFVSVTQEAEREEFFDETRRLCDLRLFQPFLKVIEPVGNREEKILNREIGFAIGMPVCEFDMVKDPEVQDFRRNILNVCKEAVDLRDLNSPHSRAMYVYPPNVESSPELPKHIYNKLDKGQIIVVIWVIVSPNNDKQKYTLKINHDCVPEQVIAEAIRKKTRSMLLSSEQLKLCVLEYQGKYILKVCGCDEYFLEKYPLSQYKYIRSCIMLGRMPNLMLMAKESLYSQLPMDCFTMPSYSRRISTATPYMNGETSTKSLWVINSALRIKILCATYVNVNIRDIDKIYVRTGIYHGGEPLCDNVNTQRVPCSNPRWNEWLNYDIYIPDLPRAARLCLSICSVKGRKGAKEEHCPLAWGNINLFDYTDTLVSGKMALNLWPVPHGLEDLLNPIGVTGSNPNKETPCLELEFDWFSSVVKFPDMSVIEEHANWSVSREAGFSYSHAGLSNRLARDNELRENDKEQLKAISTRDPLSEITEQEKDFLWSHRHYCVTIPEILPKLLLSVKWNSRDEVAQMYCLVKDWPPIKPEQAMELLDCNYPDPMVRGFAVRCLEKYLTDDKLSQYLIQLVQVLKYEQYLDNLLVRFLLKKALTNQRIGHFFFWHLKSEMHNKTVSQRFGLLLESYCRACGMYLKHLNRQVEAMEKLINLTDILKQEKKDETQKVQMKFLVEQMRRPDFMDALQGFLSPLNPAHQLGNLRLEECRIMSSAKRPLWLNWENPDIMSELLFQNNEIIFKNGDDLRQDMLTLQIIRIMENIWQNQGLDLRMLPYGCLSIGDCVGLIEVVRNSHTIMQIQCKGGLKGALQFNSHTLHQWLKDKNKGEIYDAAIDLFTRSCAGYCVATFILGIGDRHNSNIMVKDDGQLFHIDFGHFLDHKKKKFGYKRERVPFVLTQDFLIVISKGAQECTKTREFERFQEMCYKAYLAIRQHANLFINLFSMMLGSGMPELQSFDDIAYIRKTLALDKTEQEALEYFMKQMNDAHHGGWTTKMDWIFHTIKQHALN
Chain of PI3 Kinase α (P27986 whole entry partner): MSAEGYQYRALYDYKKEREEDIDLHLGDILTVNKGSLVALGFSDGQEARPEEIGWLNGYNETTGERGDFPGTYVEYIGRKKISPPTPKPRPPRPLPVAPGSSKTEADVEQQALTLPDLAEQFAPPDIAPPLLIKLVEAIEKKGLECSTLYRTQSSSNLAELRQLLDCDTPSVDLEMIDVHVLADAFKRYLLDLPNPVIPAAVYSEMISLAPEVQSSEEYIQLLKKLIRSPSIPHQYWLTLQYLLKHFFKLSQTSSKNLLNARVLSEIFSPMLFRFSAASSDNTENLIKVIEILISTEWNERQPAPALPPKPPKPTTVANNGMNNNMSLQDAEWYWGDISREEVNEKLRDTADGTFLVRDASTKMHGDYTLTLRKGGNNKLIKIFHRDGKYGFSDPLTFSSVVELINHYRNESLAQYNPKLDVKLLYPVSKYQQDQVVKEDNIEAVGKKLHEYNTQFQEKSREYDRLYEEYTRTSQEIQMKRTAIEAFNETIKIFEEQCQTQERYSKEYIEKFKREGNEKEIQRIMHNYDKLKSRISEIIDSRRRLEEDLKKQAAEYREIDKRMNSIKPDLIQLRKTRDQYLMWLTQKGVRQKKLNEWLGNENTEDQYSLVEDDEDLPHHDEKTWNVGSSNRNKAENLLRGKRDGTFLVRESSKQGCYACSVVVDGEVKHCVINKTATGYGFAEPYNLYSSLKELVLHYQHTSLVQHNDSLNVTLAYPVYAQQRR

With `CC(C)(C)OC(=O)N1CCN(c2ccc(NC(=O)c3ccc(Cn4nnc5c(N6CCOCC6)nc(-c6cccc(O)c6)nc54)cc3)cc2)CC1` [Example 218, tert-Butyl 4-{4-[(4-{[5-(3-hydroxyphenyl)-7-morpholin-4-yl-3H-[1,2,3]triazolo[4,5-d]pyrimidin-3-yl]methyl}benzoyl)amino]phenyl}piperazine-1-carboxylate], the results for the IC50 on PI3 Kinase γ and against PI3 Kinase α were 8080 nM and 71 nM, respectively.
The like results for `CC(C)n1nnc2c(N3CCOCC3)nc(-c3ccc(NC(=O)Nc4ccc(F)cc4)cc3)nc21` [Example 87, 1-(4-fluoro-phenyl)-3-[4-(3-isopropyl-7-morpholin-4-yl-3H-[1,2,3]triazolo[4,5-d]pyrimidin-5-yl)-phenyl]-urea] were, in that order, 69.5 nM and 13.5 nM.
For `Oc1cncc(-c2nc(N3CCOCC3)c3nnn(C4CCN(Cc5ccc(Cl)nc5)CC4)c3n2)c1` [Example 20, 5-(3-{1-[(6-chloropyridin-3-yl)methyl]piperidin-4-yl}-7-morpholin-4-yl-3H-[1,2,3]triazolo[4,5-d]pyrimidin-5-yl)pyridin-3-ol], the results for the 50% inhibitory concentration (IC50) on PI3 Kinase γ and at PI3 Kinase α were 454 nM and 541 nM, respectively.
The like results for `Cn1nnc2c(N3CCOCC3)nc(-c3ccc(NC(=O)Nc4cccs4)cc3)nc21` [Example 200, 1-[4-(3-methyl-7-morpholin-4-yl-3H-[1,2,3]triazolo[4,5-d]pyrimidin-5-yl)phenyl]-3-(2-thienyl)urea] were, in that order, 22 nM and 6.5 nM.
As to `CCn1nnc2c(N3CCOC[C@@H]3C)nc(-c3ccc(NC(=O)Nc4cccnc4)cc3)nc21` [Example 72, (S)-1-(4-(3-ethyl-7-(3-methylmorpholino)-3H-[1,2,3]triazolo[4,5-d]pyrimidin-5-yl)phenyl)-3-(pyridin-3-yl)urea], the IC50 against PI3 Kinase γ came out at 88.5 nM; against PI3 Kinase α, 8 nM.
For `Oc1cccc(-c2nc(N3CCOCC3)c3nnn(CCCCN4CCCC4)c3n2)c1` [Example 205, 3-[7-Morpholin-4-yl-3-(4-pyrrolidin-1-ylbutyl)-3H-[1,2,3]triazolo[4,5-d]pyrimidin-5-yl]phenol], in that order: 1210 nM and 332 nM.
In the case of `CCNC(=O)c1ccc(NC(=O)Nc2ccc(-c3nc(N4CCOCC4)c4nnn(CC)c4n3)cc2)cc1` [Example 64, N-ethyl-4-({[4-(3-ethyl-7-morpholin-4-yl-3H-[1,2,3]triazolo[4,5-d]pyrimidin-5-yl)phenyl]carbamoyl}amino)benzamide], the values for the IC50 at PI3 Kinase γ and against PI3 Kinase α were 15.5 nM and 3.3 nM, respectively.
Turning to `O=C(c1cccc(-n2nnc3c(N4CCOCC4)nc(-c4cccc(O)c4)nc32)c1)N1CCC(N2CCCC2)CC1` [Example 120, 3-(7-morpholin-4-yl-3-{3-[(4-pyrrolidin-1-ylpiperidin-1-yl)carbonyl]phenyl}-3H-[1,2,3]triazolo[4,5-d]pyrimidin-5-yl)phenol], the half-maximal inhibitory concentration (IC50) against PI3 Kinase γ turned out to be 290 nM; on PI3 Kinase α, 15.5 nM.
In the case of `O=C(Nc1ccc(-c2nc(N3CCOCC3)c3nnn(C4CC4)c3n2)cc1)Nc1cccnc1` [Example 79, 1-(4-(3-cyclopropyl-7-morpholino-3H-[1,2,3]triazolo[4,5-d]pyrimidin-5-yl)phenyl)-3-(pyridin-3-yl)urea], the IC50 against PI3 Kinase γ amounted to 34 nM; against PI3 Kinase α, 7 nM.
For `Oc1cccc(-c2nc(N3CCOCC3)c3nnn(C4CCNCC4)c3n2)c1` [Example 144, 3-(7-morpholin-4-yl-3-piperidin-4-yl-3H-[1,2,3]triazolo[4,5-d]pyrimidin-5-yl)phenol], the IC50 is 406 nM against PI3 Kinase γ and 81.5 nM against PI3 Kinase α.
For `CCn1nnc2c(N3CCOC[C@@H]3C)nc(-c3ccc(NC(=O)Nc4ccc(CO)cc4)cc3)nc21` [Example 70, (S)-1-(4-(3-ethyl-7-(3-methylmorpholino)-3H-[1,2,3]triazolo[4,5-d]pyrimidin-5-yl)phenyl)-3-(4-(hydroxymethyl)phenyl)urea], in that order: 102 nM and 5.5 nM.
On to `Oc1cccc(-c2nc(N3CCOCC3)c3nnn(C4CCN(Cc5ccccn5)CC4)c3n2)c1` [Example 149, 3-{7-morpholin-4-yl-3-[1-(pyridin-2-ylmethyl)piperidin-4-yl]-3H-[1,2,3]triazolo[4,5-d]pyrimidin-5-yl}phenol], for which the figures for the IC50 on PI3 Kinase γ and against PI3 Kinase α were 735 nM and 67 nM, respectively.
For `Oc1cccc(-c2nc(N3CCOCC3)c3nnn(CCN4CCN(Cc5ccc[nH]5)CC4)c3n2)c1` [Example 112, 3-(7-morpholin-4-yl-3-{2-[4-(1H-pyrrol-2-ylmethyl)piperazin-1-yl]ethyl}-3H-[1,2,3]triazolo[4,5-d]pyrimidin-5-yl)phenol], in that order: 1020 nM and 154 nM.
For `O=C(Cn1nnc2c(N3CCOCC3)nc(-c3cccc(CO)c3)nc21)Nc1cccnc1` [Example 235, 2-{5-[3-(hydroxymethyl)phenyl]-7-morpholin-4-yl-3H-[1,2,3]triazolo[4,5-d]pyrimidin-3-yl}-N-pyridin-3-ylacetamide], in that order: 2230 nM and 637 nM.
For `CN(C)CCNC(=O)Nc1ccc(-c2nc(N3CCOCC3)c3nnn(C4CCN(Cc5ccc(F)nc5)CC4)c3n2)cc1` [Example 157, 1-(2-(dimethylamino)ethyl)-3-(4-(3-(1-((6-fluoropyridin-3-yl)methyl)piperidin-4-yl)-7-morpholino-3H-[1,2,3]triazolo[4,5-d]pyrimidin-5-yl)phenyl)urea], in that order: 144 nM and 61 nM.
In the case of `O=C(Nc1ccc(-c2nc(N3CCOCC3)c3nnn(C4CCN(Cc5ccccc5)CC4)c3n2)cc1)C(F)(F)F` [Example 5, N-{4-[3-(1-benzylpiperidin-4-yl)-7-morpholin-4-yl-3H-[1,2,3]triazolo[4,5-d]pyrimidin-5-yl]phenyl}-2,2,2-trifluoroacetamide], the IC50 is 133 nM against PI3 Kinase γ and 68 nM against PI3 Kinase α.
The like results for `CC(C)(C)C(=O)Nc1ncccc1CN1CCC(n2nnc3c(N4CCOCC4)nc(-c4cncc(O)c4)nc32)CC1` [Example 25, N-[3-({4-[5-(5-hydroxypyridin-3-yl)-7-morpholin-4-yl-3H-[1,2,3]triazolo[4,5-d]pyrimidin-3-yl]piperidin-1-yl}methyl)pyridin-2-yl]-2,2-dimethylpropanamide] were, in that order, 407 nM and 143 nM.
For `O=C(Nc1ccc(-c2nc(N3CCOCC3)c3nnn(C4CCNCC4)c3n2)cc1)Nc1cccnc1` [Example 163, 1-[4-(7-morpholin-4-yl-3-piperidin-4-yl-3H-[1,2,3]triazolo[4,5-d]pyrimidin-5-yl)phenyl]-3-pyridin-3-ylurea], in that order: 49.5 nM and 13.5 nM.
In the case of `CCn1nnc2c(N3CCOCC3)nc(-c3ccc(NC(=O)Nc4ccc(C(=O)NCCO)cc4)cc3)nc21` [Example 46, 4-({[4-(3-ethyl-7-morpholin-4-yl-3H-[1,2,3]triazolo[4,5-d]pyrimidin-5-yl)phenyl]carbamoyl}amino)-N-(2-hydroxyethyl)benzamide], the figures for the IC50 on PI3 Kinase γ and at PI3 Kinase α were 14.5 nM and 2.8 nM, respectively.
The like results for `CC(C)(C)OC(=O)N1CC(n2nnc3c(N4CCOCC4)nc(-c4cccc(O)c4)nc32)C1` [Example 124, tert-butyl 3-[5-(3-hydroxyphenyl)-7-morpholin-4-yl-3H-[1,2,3]triazolo[4,5-d]pyrimidin-3-yl]azetidine-1-carboxylate] were, in that order, 890 nM and 108 nM.
For `CCn1nnc2c(N3CCOCC3)nc(-c3ccc(NC(=O)Nc4cccs4)cc3)nc21` [Example 40, 1-[4-(3-ethyl-7-morpholin-4-yl-3H-[1,2,3]triazolo[4,5-d]pyrimidin-5-yl)phenyl]-3-(2-thienyl)urea], in that order: 11.5 nM and 2.5 nM.
Regarding `O=C(Nc1ccccc1)Nc1ccc(-c2nc(N3CCOCC3)c3nnn(CCO)c3n2)cc1` [Example 186, 1-{4-[3-(2-hydroxyethyl)-7-morpholin-4-yl-3H-[1,2,3]triazolo[4,5-d]pyrimidin-5-yl]phenyl}-3-phenylurea], the IC50 at PI3 Kinase γ amounted to 22 nM; against PI3 Kinase α, 4.7 nM.
The like results for `CCn1nnc2c(N3CCOCC3)nc(-c3ccc(NC(=O)Nc4ccc(C(=O)O)cc4)cc3)nc21` [Example 42, 4-({[4-(3-ethyl-7-morpholin-4-yl-3H-[1,2,3]triazolo[4,5-d]pyrimidin-5-yl)phenyl]carbamoyl}amino)benzoic acid] were, in that order, 35.3 nM and 10.5 nM.
With `CN(C)CCNC(=O)c1ccc(Cn2nnc3c(N4CCOCC4)nc(-c4cccc(O)c4)nc32)cc1` [Example 214, N-[2-(dimethylamino)ethyl]-4-{[5-(3-hydroxyphenyl)-7-morpholin-4-yl-3H-[1,2,3]triazolo[4,5-d]pyrimidin-3-yl]methyl}benzamide], the IC50 against PI3 Kinase γ was 1540 nM; against PI3 Kinase α, 386 nM.
As to `CCN(CC)C(=O)c1ccc(Cn2nnc3c(N4CCOCC4)nc(-c4cccc(O)c4)nc32)cc1` [Example 220, N,N-diethyl-4-{[5-(3-hydroxyphenyl)-7-morpholin-4-yl-3H-[1,2,3]triazolo[4,5-d]pyrimidin-3-yl]methyl}benzamide], the IC50 was found to be 2420 nM on PI3 Kinase γ and 1150 nM against PI3 Kinase α.
Turning to `CCn1nnc2c(N3CCOCC3)nc(-c3ccc(NC(=O)Nc4ccc(C(=O)NCCc5ccccn5)cc4)cc3)nc21` [Example 63, 4-({[4-(3-ethyl-7-morpholin-4-yl-3H-[1,2,3]triazolo[4,5-d]pyrimidin-5-yl)phenyl]carbamoyl}amino)-N-(2-pyridin-2-ylethyl)benzamide], the IC50 against PI3 Kinase γ is 30 nM; at PI3 Kinase α, 4.5 nM.
Regarding `O=C(NCCc1c[nH]c2ccccc12)c1ccc(Cn2nnc3c(N4CCOCC4)nc(-c4cccc(O)c4)nc32)cc1` [Example 225, 4-{[5-(3-hydroxyphenyl)-7-morpholin-4-yl-3H-[1,2,3]triazolo[4,5-d]pyrimidin-3-yl]methyl}-N-[2-(1H-indol-3-yl)ethyl]benzamide], the values for the IC50 against PI3 Kinase γ and at PI3 Kinase α were 135 nM and 43 nM, respectively.
